Patent publication US8932617B2, “Methods for treating or preventing restenosis and other vascular proliferative disorders” (priority 2004, dated 2015)
“And” between values parts separate entries of the source, which are not always exact repeats. Equal entries are not always repeated. “Also recorded” adds a separate entry of the source. Where two headings read alike, the source gives them in different places. Marks after values point to notes of the source that are not given here.

How the values were obtained:
[1] = test system: rat carotid artery, balloon mediated injury (restenosis); assay: Rat model of balloon mediated carotid artery injury (Example 1), morphometric analysis; format: in vivo; settings: two weeks post injury; intraperitoneal injection; vs untreated injured artery
Procedure: To determine the ability of the ribonucleotide reductase inhibitors to affect restenosis, a rat model of balloon mediated carotid artery injury was utilized. Percutaneous transluminal carotid angioplasty (PTCA) was performed using a 2F Fogarty Embolectomy Catheter, which was inserted through the right, external carotid artery and inflated (2 atm) and deflated four times inside the right common carotid artery and rotated to cause endothelial injury. Immediately following the carotid injury, the rats received ribonucleotide reductase inhibitors, Didox (N,3,4-trihydroxybenzamide) Imidate (ethyl-3,4,5-trihydroxybenzenecarboximidate.HCl), or Hydroxyurea via intraperitoneal injection. The degree of restenosis was assessed using morphometric analysis at two weeks post injury.

[2] = test system: rat carotid artery, balloon mediated injury (restenosis); assay: Rat balloon carotid injury (Example 2), morphometric analysis at 2 and 6 weeks; format: in vivo; settings: for decrease in neointimal area / decrease in intima/media ratio: 200 mg kg^-1 d^-1 i.p. for 7 days
Text: Male Wistar rats, weighing 400-450 g (Harlan) were fed standard pellet feed and given water ad libitum. The experimental protocol was designed in accordance with Institutional ILACUC standards. Animals were anesthetized with Isoflurane (1.5-2%) in air. The right carotid artery was exposed and a 2F Fogarty balloon embolectomy catheter (Baxter) was inserted via an external carotid arteriotomy incision. The catheter was advanced to the common carotid artery, inflated to a pressure of 2 atm and rotated in a forward and retrograde direction. The catheter was then deflated and the process repeated three times. Treatment cohorts were divided into 5 groups (n=6-8/group): Control (sham operated), Didox (200 mg-kg^−1 d^−1), Imidate (200 mg kg^−1)HU (200 mg kg^−1 d^−1) and vehicle (saline). Drugs were administered daily by i.p. injection for a period of 7 days after injury. At 2 weeks post-injury, rats were euthanized by pentobarbital overdose and perfused with 10% buffered formalin Carotid arteries were removed and placed in the same fixative. Tissues were then embedded in paraffin, and 4 to 5 sections (4 μm) were cut at multiple levels. These sections were then stained with hematoxylin-eosin or elastic-van Gieson stain. Sections were examined microscopically and the cross-sectional areas of the lumen, neointima (from the internal elastic lamina to the lumen), and media were determined using digital microscopy with Spot Advanced software. The intima-to-media (I/M) ratio was then calculated from the determined mean. The data represent the mean±SD.
The effects of Didox, Imidate, and Hydroxyurea (HU) on the vascular remodeling process following arterial injury were determined using a rat model of balloon mediated carotid injury. Each compound (200 mg kg^−1 d^−1) was delivered via i.p. injection for a period of 7 days post injury. These dosages are based on previously published reports and represent ½ the maximum tolerated dose of Hydroyurea in rats (Gupta and Yaffe, (1982) Pediatr Pharmacol (New York) 2:85-91; Vaughan et al., (1989) Cancer Chemother Pharmacol 23:26-30).
At 14 days post injury the animals were sacrificed and morphometric analysis was carried out in order to asses the histopathological changes in the vessel wall (FIG. 1). […] HU afforded similar vascular protective effects to those observed with Didox and Imidate, resulting in a 55% decrease in neointimal area and a 63% decrease in intima/media ratio (FIG. 2). […] However, because the remodeling process occurs over a prolonged period of time, additional studies were performed in order to determine whether the vascular protective effects observed would be mitigated over time.
To further investigate long-term efficacy of the one week dosing regimen, the duration of the study period was increased to 6 weeks. […] The beneficial effect of ribonucleotide reductase inhibition persisted over the long term. Each compound (200 mg kg^−1 d^−1) was given i.p. for a period of 7 days followed by a 5 week recovery period. […] Similarly, Imidate offered a 61% reduction in neointimal area and a 62% reduction in intima/media ratio (FIG. 3).

[3] = test system: Rat vascular smooth muscle cells; assay: SMC proliferation, cell count by flow cytometry; format: cell-based; settings: 24 hours incubation, cells counted by flow cytometry, read-out: IC50 on inhibition of smooth muscle cell growth
Procedure: SMC were plated on 6 well dishes at a density of 2×10^5 cells per well. Cells were then treated with Didox (0-200 μM), Imidate (0-200 μM) or HU (0-1000 μM) and incubated for 24 hours. Following the 24 hour incubation period, the cells were trypsinized and collected in 15 mL centrifuge tubes. The cells were then centrifuged 5 minutes at 800×g. The supernatant was discarded and the pellet was resuspended in 5 ml PBS. The cells were centrifuged 6 minutes at 200×g. The supernatant was removed and the pellet was then thoroughly resuspended in 0.5 ml PBS. The cell suspension was transferred into tubes containing 70% ethanol, keeping the cells in fixative for greater than about 2 hours. The ethanol suspended cells were centrifuged 5 minutes at 200×g, and the ethanol was decanted. The cell pellet was resuspended in 5 ml PBS and after one minute was centrifuged 5 min at 200×g. The top layer of liquid was again removed and the cell pellet was resuspended in 1 ml PI/Triton X-100 staining solution with RNAse A. This staining solution was then incubated at room temperature for 30 minutes. Flow cytometry was then performed using a FACS Calibur (Becton Dickenson). The data are presented as the mean.
Didox, Imidate, and to a much lesser degree, HU, are known to be ribonucleotide reductase inhibitors (Elford, (1968) Biochem Biophys Res Commun 33:129-135; Elford et al., (1970) J Biol Chem 245:5228-5233; Elford et al., (1979) Cancer Res 39:844-851). ribonucleotide reductase catalyzes the reductive conversion of ribonucleotides to deoxynucleotides. This reductive reaction is a prime target for impeding cellular proliferation, and therefore amenable to inhibiting VSMC replication, because it is a rate limiting step in the biochemical pathway leading to DNA synthesis (Elford et al., (1970) J Biol Chem 245:5228-5233; Elford et al., (1979) Cancer Res 39:844-851; Takeda and Weber, (1981) Life Sci 28:1007-1014; Natsumeda et al., (1985) Cancer Res 45:2556-2559). […] Therefore, the IC50 of each compound on inhibition of smooth muscle cell growth was determined. […]

[4] = test system: SMC dATP pools; assay: Intracellular dNTP quantitation (dATP pools) by HPLC; format: cell-based, rat; settings: 24 hours; for dATP levels: control 303; for maximal reduction in dATP content: Didox 0-200 μM, Imidate 0-200 μM, HU 0-1000 μM
Procedure: SMC were plated in T150 flasks and treated with Didox (0-200 μM), Imidate (0-200 μM) or HU (0-1000 μM) and incubated for 24 hours. Following the 24 hour incubation period, the cells were trypsinized and collected in 50 mL centrifuge tubes along with the incubation media. All the extraction steps were performed on ice. Immediately before processing, cells were counted and viability determined using the trypan blue exclusion method. The cells were then centrifuged 5 minutes at 800×g. The cell pellet was then deproteinized with the same volume of 6% TCA, vortexed for 20 s and incubated on ice for 10 minutes. The acid cell extracts were centrifuged 10 min at 2000×g. The supernatants were then supplemented with an equal volume of distilled water, vortexed for 60 s and neutralized by the addition of 5M K2CO3 prior to HPLC analysis. dNTP detection was carried out using an ESA (Chelmsford, Mass.) HPLC chromatographic system with UV-Vis detection. Chromatographic separations were performed using a TosoHaas C18 reverse phase column (ODS 80Tm 250×4.6 mm, 5 μm pore). The mobile phase was delivered at a rate of 1.0 mL/min during the analysis using the following stepwise gradient elution program: A-B (80-20) at 0 min; (40-60) at 30 min; (40-60) at 40 min and (80-20) at 45 min. Buffer A contained 10 mM tetrabutylammonium sulfate, 10 mM KH2PO4 and 0.25% MeOH, and adjusted to pH 6.9. Buffer B consisted of 5.6 mM tetrabutylammonium sulfate, 50 mM KH2PO4 and 30% MeOH, and neutralized to pH 7.0. The injection volume for analysis was 50 μL. Detection was carried out at 254 nm.
In order to further validate that the observed anti-proliferative properties afforded by these compounds was through inhibition of ribonucleotide reductase activity, the effects of these compounds on intracellular dATP pools were measured.

[5] = test system: rat vascular SMC; assay: Smooth muscle cell migration, wound scrape assay with PDGF; format: cell-based; settings: for SMC migratory rate: 100 μM, PDGF 10 ng/mL, 24 hour period, control 15.8
Procedure: A wound scrape assay was performed using rat vascular SMC. The cells were grown to confluence on 60 mm dishes. The cells were then made quiescent by incubating them in media containing 0.1% serum for 24 hrs followed by treatment with Didox, Imidate (0-100 μM), or HU (0-1000 μM) in media containing 0.1% serum and platelet derived growth factor (PDGF) at concentration of 10 ng/mL. Linear wounds were made by scraping each plate with the tip of a 20 μL pipette. The ability of cells to migrate across the wound area was measured using digital microscopy. SPOT advanced software (Diagnostic Instruments, Inc., Sterling Heights, Mich.) was used to measure the wound immediately, 2, 4, 12 and 24 hrs following injury. The data are presented as rate of migration and represent the mean±SD.
SMC migration is also a component of neointimal proliferation. Therefore, additional studies were performed in order to determine the effects of these compounds on SMC migration. Using a wound scrape assay, SMC migration studies were carried out in the presence of Didox, Imidate, and HU. VSMC's were cultured to confluence on 60 mm dishes. The cells were made quiescent by incubating in media containing 0.1% serum. Following 24 hours of serum deprivation, Didox, Imidate, and HU were added to the wells (10-1000 μM) in the presence of PDGF (10 ng/mL) and a linear wound was made across the plate. SMC migration across the wound was monitored by digital microscopy over a 24 hour period. […] In contrast, HU (100 μM) had little effect on SMC migration, resulting in a migratory rate of […] (FIG. 4). […] This would be expected to contribute to the vascular protective effects afforded by these drugs.

[6] = 6 weeks post injury, 5 week recovery

SMILES | Lumen, % change as compared to injured vessel (increase in lumen area) [1] | Neointima, % change as compared to injured vessel (decrease in neointimal formation) [1] | Neointima/Media, % change as compared to injured vessel (reduction in intima/media ratio) [1] | Wall Thickness, % change as compared to injured vessel (reduction) [1] | decrease in neointimal area [2, 6] [%] | decrease in intima/media ratio ([2]; 14 days post injury) | decrease in neointimal area ([2]; 14 days post injury) [%] | change in medial area ([2]; one week of systemic administration after balloon injury) | IC50 ([3]; Rattus norvegicus) [µM] | dATP levels ([4]; 5 μM) [Pmoles/10^7 cells] | dATP levels ([4]; 10 μM) [Pmoles/10^7 cells] | dATP levels ([4]; 50 μM) | dATP levels ([4]; 100 μM) | dATP levels ([4]; 200 μM) | maximal reduction in dATP content [4] [%] | SMC migratory rate [5] [µm/h] | dATP levels ([4]; 500 μM) [Pmoles/10^7 cells] | dATP levels ([4]; 1000 μM) [Pmoles/10^7 cells] | effect on SMC migration ([5]; HU concentrations up to 1 mM, listed as HU) | IC50 [3] [µM]
CCOC(=N)c1cc(O)c(O)c(O)c1.Cl [Imidate, ethyl-3,4,5-trihydroxybenzenecarboximidate-HCl] | ↑19 ± 5% | ↓ 65 ± 7% | ↓ 69 ± 8% | ↓ 41 ± 7% | 61 | 55% and 60% | 57 | small but statistically significant decrease in medial area | 82 | 293 | 311 | 210 Pmoles/10^7 cells | 184* Pmoles/10^7 cells | 173* Pmoles/10^7 cells | 42 | 0.9 |  |  |  | 
NC(=O)NO [Hydroxyurea, reference compound] | ↑22 ± 5% | ↓ 91 ± 6% | ↓ 93 ± 7% | ↓ 54 ± 9% | 71 | 63% | 55 |  | 266 | 320 |  |  | 266 Pmoles/10^7 cells |  | 69 | 15.1 | 93 | 92 | No further inhibition; also recorded: no effect on SMC migration | 
O=C(NO)c1ccc(O)c(O)c1 [Didox, N-3,4-trihydroxybenzamide] |  |  |  |  | 64 | 61% and 60% | 62 |  |  | 297 | 260 | 203* Pmoles/10^7 cells | 140* Pmoles/10^7 cells | 126* Pmoles/10^7 cells | 58 | 1.7 |  |  |  | 67
